# System: rat lymphoblast cells activated with concanavalin A
# Assay: Aggregation of concanavalin A-activated rat lymphoblast cells
# Assay type: cell-based
# Details: ConA-activated rat lymphoblasts
# Procedure: The hybridomas prepared in Example 1 were screened by analyzing the effect of the antibodies produced in the culture supernatant of the hybridomas on FTL435 cells, which were used as the immunogen. FTL435 cells (5×10^6 cells/ml, 0.1 ml) were seeded into each well of a 96-well microtiter plate and cultivated at 37° C. for an hour in the presence of culture supernatant of each hybridoma (10 μg/ml each).
# In order to determine whether the aggregation of FTL435 cells induced by “JTT-1 antibody” stimulation was caused by the cell adhesion between intercellular adhesion molecule-1 (ICAM-1) and lymphocyte function-associated antigen-1 (LFA-1), which is a representative known pathway of cell adhesion, FTL435 cells were cultivated at 37° C. for an hour in the presence of anti-rat ICAM-1 antibody 1A29 (10 μg/ml; IgG1) or anti-rat LFA-1 antibody (10 μg/ml; IgG2a) together with “JTT-1 antibody.”
# In order to further analyze the cell agglutination ability of “JTT-1 antibody,” the ability to agglutinate rat lymphoblast cells activated with concanavalin A stimulation was analyzed in the same manner as mentioned above.
compound,measurement,value
CCCCCCCCCCCCCC(=O)O[C@@H]1[C@@H](C)[C@@]2(O)[C@@H](C=C(CO)C[C@]3(O)C(=O)C(C)=C[C@@H]23)[C@@H]2C(C)(C)[C@]12OC(C)=O [phorbol myristate acetate],Aggregation of activated lymphoblast cells,no aggregation through cell adhesion unless they receive the stimulation
